Laboratory results published in patent US20160310454A1, “LIVER X RECEPTOR AGONISTS IN THE TREATMENT OF EMPHYSEMA” (priority 2013, published 2016).

Tested on: macrophage specific ABCA1 KO (ABCA1 Cre-LysM) macrophages treated with 5% CSE
Assay: ABCA1 KO (ABCA1 Cre-LysM) mouse macrophages treated with 5% CSE with or without LXR agonist
Type: cell-based
Description: FIG. 14. Effect of LXR dependent ABCA1 reexpression on cigarette smoke induced pro-inflammatory and MMP signaling pathways in macrophages. (A.) Western Blot analysis of JNK phosphorylation (oxidative stress activated MAP kinase), (B.) mRNA expression analysis of TLR4/Myd88 in mouse macrophages treated with 5% CSE with or without LXR agonist (T0901317-Cayman) in 3 μM concentration. (C-E.) mRNA expression analysis of inflammatory cytokines TNFα (C.), IL-1β (D.) and IL-10 (E.) mouse macrophages isolated from bone marrow of WT (ABCA1 fl/fl mice) and macrophage specific ABCA1 KO (ABCA1 Cre-LysM) treated with 5% CSE with or without LXR agonist (T0901317-Cayman) in 3 μM concentration. (F-H.) Analysis of MMP activation mouse macrophages isolated from bone marrow of WT (ABCA1 fl/fl mice) and macrophage specific ABCA1 KO (ABCA1 Cre-LysM) treated with 5% CSE with or without LXR agonist (T0901317-Cayman) in 3 μM concentration. MMP-9 and -13 mRNA expression (F.), MMP-9 mRNA expression with LXR agonist treatment, (H.) MMP-9 activity assayed by gelatin zymography. β-Actin was used as a housekeeping gene control for RT-PCR. Values are presented as statistically significant when *p<0.05, **p<0.01, ***p<0.001 when compared to controls and #p<0.05 compared to 5% CSE.
In these experiments both mouse peritoneal and mouse bone marrow derived macrophages (BMdM) were utilized. Mouse peritoneal macrophages were isolated from peritoneal cavities of 3% thioglycolate injected mice on the 5th day from injection. To compare expression of genes in vitro and in vivo peritoneal macrophages were isolated from mice exposed to room air and cigarette smoke. For in vitro analysis cells were seeded on culture plates for 24 h and then treated with CSE. For in vivo analysis cells were collected from peritoneal cavity and mRNA was directly isolated. […] The obtained cells were then counted (usually 100-150 million cells per mouse) and centrifuged for 5 min at 2600 rpm. […] Approximately after 7-10 days of plating the cells become fully differentiated into macrophages and were ready for subsequent experiments. […]

O=S(=O)(c1ccccc1)N(CC(F)(F)F)c1ccc(C(O)(C(F)(F)F)C(F)(F)F)cc1 [T0901317, N-(2,2,2-trifluoroethyl)-N-[4-[2,2,2-trifluoro-1-hydroxy-1-(trifluoromethyl)ethyl]phenyl]-benzenesulfonamide]
decrease in MMP-9 activity and expression, MMP-13 expression and TNFα expression (ABCA1 KO macrophages): not observed | reversal of induction of cytokines by 5% CSE (ABCA1 macrophage knockout, LXR agonist 3 μM): not able to reverse | reduction of mRNA and activity of MMP-9: dependence on ABCA1 (WT versus ABCA1 KO macrophages, 5% CSE, LXR agonist 3 μM): only in the presence of the ABCA1 transporter
